# Experiments:
# [1] = tested on: HIV; design: method as in PMID 8787923; conditions: MT-4 cells; cited from earlier work
# [2] = tested on: HIV LTR in J-Lat clones; assay: LTR-driven GFP expression in J-Lat clones; format: cell-based, HIV-1; conditions: J-Lat clones 9.2 and 10.6, 48 h, all concentrations tested
# Experimental: J-Lat cells are Jurkat cells stably transfected by an HIV genome whose nef sequence was replaced by the GFP gene. Also, a frameshift mutation was introduced to the env gene to prevent virus spread. […] To test the ISDs, a million cells of each clone were treated with different concentrations of each compound (ING-A, ING-B, ING-C, prostratin and PMA) at 37°C. TNF-α (10 ng/mL) was used as a positive control. After 48 h, cells were collected, washed with saline solution (PBS) and GFP expression was evaluated in a FACScalibur cytometer (BD Biosciences). Data were analyzed with Cell Quest Pro software (BD Biosciences).
# [3] = tested on: HIV-1 p24 in J-Lat clones; assay: HIV-1 p24 production in J-Lat clones (ELISA); format: cell-based
# Experimental: (§1) ACH-2 and J1.1 are clonal cell lines derived from CEM [52] and Jurkat cells, respectively, after infection with HIV-1. U1 cells were derived from the human promonocyte cell line U937 and chronically infected with HIV-1 [54]. Each cell line (1×10^6 cells) was incubated in the presence of 1 µM of diterpenes (ING-A, ING-B, ING-C, prostratin and PMA) or 10 ng/mL TNF-α for 48 h at 37°C. After incubation, cells were centrifuged and supernatants were collected for the quantitation of gag p24 antigen by ELISA, following the protocol described by the manufacturer (Perkin Elmer).
# To assess whether the GFP expression levels induced by ISDs in J-Lats led to viral production, all five clones were stimulated with 1 µM of each compound for 48 h and production of HIV-1 p24 was measured in the culture supernatant by ELISA. Levels of p24 were proportional to GFP expression in clones 6.3 and 9.2, whereas levels in clone 8.4 were lower when compared to GFP (Figure 3A).
# [4] = tested on: ACH-2 cells; assay: gag p24 production in ACH-2 cells (ELISA); format: cell-based, HIV-1; conditions: ACH-2, 1 µM, 48 h
# Experimental: as §1
# [5] = tested on: CD4, CXCR4, CCR5 on MT-4 cells; assay: Surface CD4, CXCR4, CCR5 expression in MT-4 cells (cytometry); format: cell-based; conditions: 1 µM
# Experimental: (§2) For analysis of cell surface marker expression, MT-4 cells and bead-selected CD4+ T cells (described above) were incubated with 1 µM of each compound (ING-A, ING-B, ING-C, prostratin, PMA, and bryostatin-1) at 37°C for 48 h. After incubation, cells were washed with PBS and incubated for 20 min at room temperature with antibodies against CD3-Brilliant Violet 510 (clone OKT3 – Biolegend), CD4-Qdot 655 (clone 53.5 - Life Technologies), CXCR4-PE (clone 1265 - BD Biosciences), CCR5-PerCP-Cy5.5 (clone 3A9 - BD Biosciences), CD69-Pacific Blue (clone FN50 – BD Biosciences), CD38-FITC (clone AT-1 – Stem Cell Technologies), CD25-APC (clone 2A3 – BD Biosciences), HLA-DR-Qdot 605 (clone TÜ36 – Life Technologies) and a marker for annexin V-FITC (Life Technologies). Cells (both MT-4 cells and CD4+ T cells) were initially incubated for 2 h with different PKC inhibitors (GÖ6983, GÖ6976 or RO-31-8220). Then, ING-B, prostratin or PMA at 1 µM or TNF-α at 10 ng/mL were added to each condition and incubation was carried out for 24 h at 37°C. Similar protocol was used for the analysis of PKC inhibitors in J-Lat clones 9.2 and 10.6. GFP expression, surface marker expression and activation marker were evaluated on a LSR Fortessa cytometer (BD Biosciences). Data analysis was performed using FlowJo software (Tree Star).
# [6] = tested on: CD4, CXCR4, CCR5 on CD4+ T lymphocytes; assay: Surface CD4, CXCR4, CCR5 expression in CD4+ T lymphocytes (cytometry); format: cell-based, human; conditions: CD4+ lymphocytes, 1 µM
# Experimental: as §2
# [7] = tested on: CD4+ T lymphocytes; assay: Activation markers CD25, CD38, HLA-DR, CD69 on CD4+ T lymphocytes (cytometry); format: cell-based, human; conditions: 1 µM
# Experimental: For analysis of cell surface marker expression, MT-4 cells and bead-selected CD4+ T cells (described above) were incubated with 1 µM of each compound (ING-A, ING-B, ING-C, prostratin, PMA, and bryostatin-1) at 37°C for 48 h. […] Cells (both MT-4 cells and CD4+ T cells) were initially incubated for 2 h with different PKC inhibitors (GÖ6983, GÖ6976 or RO-31-8220). Then, ING-B, prostratin or PMA at 1 µM or TNF-α at 10 ng/mL were added to each condition and incubation was carried out for 24 h at 37°C. […] GFP expression, surface marker expression and activation marker were evaluated on a LSR Fortessa cytometer (BD Biosciences). Data analysis was performed using FlowJo software (Tree Star).
# [8] = tested on: HIV-1 latency; design: method as in PMID 15284245; conditions: statement in discussion, reference given only in the next sentence; cited from earlier work
smiles,measurement,setting,value
"CC(=O)OCC1=C[C@@H]2C(=O)[C@]3(C=C(C)[C@H](OC(C)=O)[C@@]3(O)[C@@H]1OC(C)=O)[C@H](C)C[C@@H]1[C@H]2C1(C)C [ITA, Ingenol 3,5,20-triacetate]",concentration inhibiting HIV replication (as low as),[1],≥ 0.05 µM
"CC(=O)O[C@@]12C[C@@H](C)[C@@]3(O)[C@@H](C=C(CO)C[C@]4(O)C(=O)C(C)=C[C@@H]34)[C@@H]1C2(C)C [prostratin, 12-deoxyphorbol 13-acetate]","levels of GFP expression, rank order",[2],PMA = ING-B > ING-A = ING-C > prostratin
same,p24 in culture supernatant,"[3]; J-Lat clone 15.4, 1 µM, 48 h",does not appear to work
same,"HIV-LTR activation, overall comparison","[3]; J-Lat clones, GFP and p24 taken together",the less effective compound among all tested
same,p24 production (in words),[4],low levels of p24 production
same,downregulation of surface CD4 and CXCR4 (in words),[5],not by prostratin and bryostatin-1
same,downregulation of surface CCR5,[6],less efficient in downregulating surface expression of CCR5
same,CD25 surface expression,[7],upregulated
same,HLA-DR surface expression,[7],not by prostratin
same,concentration required to reactivate HIV-1 latency,[8],higher than 2 µM

# — PMC4020785 (PLoS ONE, 2014)
